According to publication PMC5740381 (Antimicrobial Agents and Chemotherapy, 2017):
Like-named read-outs stand apart in the source and are kept apart here.

Tests used:
[1] = test system: HCV genotype 1 to 6 NS3/4A proteases; test: HCV NS3/4A protease biochemical assay, all genotypes; parameters: species or system Hepatitis C virus; conditions: read-out: IC50, range over proteases
Description: . […] Genes encoding NS3/4A were derived from laboratory strains 1a-H77 (GenBank accession number NC_004102) and 1b-N (GenBank accession number AF139594) or from clinical samples from patients infected with genotype 2a, 2b, 3a, or 4a. All patients provided written informed consent. Clinical studies were designed according to Good Clinical Practice guidelines, the Declaration of Helsinki, and applicable local regulations, with independent ethics committee or institutional review board approval for all study sites. The genotype 5a NS3/4A gene sequence was synthetically constructed based on the sequence of the clinical isolate SA13 (GenBank accession number AF064490) ([48]), whereas the genotype 6a NS3/4A gene sequence was synthetically constructed based on a consensus sequence derived from the alignment of 15 genotype 6a sequences available in GenBank. The NS3/4A genes were each cloned into the protein expression vector pET14b (Novagen, Madison, WI), and a clone with an NS3/4A protease sequence that matched the consensus sequence for each sample was subsequently selected for protein expression and purification. Protease activity was measured by continuous monitoring of the fluorescence change associated with the cleavage of a fluorogenic depsipeptide (EDANS/DABCYL) substrate using a purified recombinant HCV NS3/4A protease as described previously ([49]). […]

[2] = test system: HCV genotype 4a replicon cells; test: Drug-resistant colony selection in replicon cells; type: cell-based, Hepatitis C virus
Description: (§1) . After approximately 3 weeks of treatment, the surviving replicon colonies in one plate for each selection condition were stained with crystal violet and counted, whereas approximately 20 to 30 colonies in a replicate plate or most of the colonies, if less than 20 colonies survived the selection, were picked and further expanded for genotyping. The expanded colonies were lysed in CellsDirect lysis buffer (Invitrogen, MA), and the NS3-coding region from each colony was amplified by reverse transcription-PCR and sequenced. For genotype 1a, 1b, 2a, and 5a colonies, the full-length NS3 sequence was determined, whereas for colonies of the chimeric replicon containing the N-terminal region of NS3 from genotype 2b, 3a, 4a, or 6a, the sequence encoding the NS3 N-terminal region was determined. We defined a substitution in a replicon to be an amino acid difference in a sequence from a posttreatment sample relative to the sequence of the corresponding untreated sample. For resistance selection studies, NS3 substitutions detected at the following amino acid positions associated with resistance to the HCV PI class in >2 colonies in each replicon selection are reported: 36, 43, 54, 55, 56, 80, 122, 155, 156, and 168. In addition, substitutions detected at other amino acid positions in the NS3 protease domain in >2 colonies in each replicon selection are also reported.

[3] = test system: HCV genotype 2a replicon cells; test: Drug-resistant colony selection in replicon cells; type: cell-based, Hepatitis C virus
Description: as §1

[4] = test system: HCV genotype 3a replicon cells; test: Drug-resistant colony selection in replicon cells; type: cell-based, Hepatitis C virus
Description: as §1

[5] = test system: HCV genotype 2b replicon cells; test: Drug-resistant colony selection in replicon cells; type: cell-based, Hepatitis C virus
Description: as §1

[6] = test system: HCV genotype 5a replicon cells; test: Drug-resistant colony selection in replicon cells; type: cell-based, Hepatitis C virus
Description: as §1

[7] = test system: HCV genotype 6a replicon cells; test: Drug-resistant colony selection in replicon cells; type: cell-based, Hepatitis C virus
Description: as §1

[8] = test system: HCV replicons with genotype 4a patient proteases; test: Transient replicon assay with proteases from HCV-infected patients; type: cell-based; conditions: Hepatitis C virus
Description: Each of the NS3 gene sequences from genotypes 1, 2, and 4, with the exception of two genotype 2b sequences, was derived from serum or plasma from an HCV-infected patient by bulk PCR amplification, producing a population of sequences representing the viral quasispecies. Two genotype 2b sequences were synthesized based on the consensus sequences of the respective samples. One genotype 3a sequence was synthesized based on a consensus sequence from the sequences available in the Los Alamos HCV sequence database, and another genotype 3a sequence was a clonal sequence derived from a patient sample. The genotype 5a sequence (strain SA13) was synthesized based on the published sequence of the HCV isolate ([48]).
Transient replicons containing NS3 from clinical samples from HCV genotype 1a- and 1b-infected patients were described previously ([28]).
For the analysis of NS3 sequences from patients, we defined a polymorphism to be an amino acid difference in the sequence of a baseline sample relative to the sequence of the appropriate HCV subtype reference sequence: genotype 1a H77 (GenBank accession number NC_004102), genotype 1b Con1 (GenBank accession number AJ238799), genotype 2a JFH-1 (GenBank accession number AB047639), genotype 2b HC-J8 (GenBank accession number D10988), genotype 3a S52 (GenBank accession number GU814263), genotype 4a ED43 (GenBank accession number GU814265), genotype 4d QC382 (GenBank accession number FJ462437), and genotype 5a SA13 (GenBank accession number AF064490). […] All DNA sequencing was performed by the Sanger sequencing method.

HCV genotype 1 = conditions: 3-day monotherapy, daily doses of 100 to 700 mg, genotype 1 treatment-naive patients; cited from earlier work
HBV = test: Anti-HBV assay, extracellular HBV DNA by quantitative PCR; type: cell-based; conditions: Hepatitis B virus, read-out: Mean EC50 ± SD

SMILES: CC(C)(C)[C@@H]1NC(=O)O[C@@H]2CCC[C@H]2OC/C=C/C(F)(F)c2nc3ccccc3nc2O[C@@H]2C[C@@H](C(=O)N[C@]3(C(=O)NS(=O)(=O)C4(C)CC4)C[C@H]3C(F)F)N(C2)C1=O [Glecaprevir, (3aR,7S,10S,12R,21E,24aR)-7-tert-butyl-N-[(1R,2R)-2-(difluoromethyl)-1-{[(1-methylcyclopropyl)sulfonyl]carbamoyl}cyclopropyl]-20,20-difluoro-5,8-dioxo-2,3,3a,5,6,7,8,11,12,20,23,24a-dodecahydro-1H,10H-9,12-methanocyclopenta[18,19][1,10,17,3,6]trioxadiazacyclononadecino[11,12-b]quinoxaline-10-carboxamide]
- IC50 [1]: 3.5 to 11.3 nM
- Colony survival ([2]; 10× EC50): 0.0015%
- Colony survival ([2]; 100× EC50): 0.0018%
- Colony survival ([3]; 10× EC50): >0.05%
- Colony survival ([3]; 100× EC50): >0.05%
- Colony survival ([4]; 10× EC50, 1 × 10^4 input cells): 0.1%
- Colony survival ([4]; 100× EC50): 0.0003%
- Colony survival ([5]; 10× EC50): >0.05%
- Colony survival ([5]; 100× EC50): >0.05%
- Colony survival ([6]; 10× EC50): 0.001%
- Colony survival ([6]; 100× EC50): 0%
- Colony survival ([7]; 10× EC50): 0.018%
- Colony survival ([7]; 100× EC50): 0%
- EC50 ([8]; read-out: EC50 Median, subtype 4a, T54S, 1 sample): 0.44 nM
- EC50 ([8]; read-out: EC50 Median, subtype 4a, no polymorphism, 5 samples): 0.39 nM
- EC50 ([8]; read-out: EC50 Range, subtype 4a, no polymorphism, 5 samples): 0.31 to 0.55 nM
- Mean maximal decrease in HCV plasma viral load from baseline (HCV genotype 1): 3.8 to 4.3 log10 IU/ml
- EC50 (HBV): > 32000 nM
